pIC50: −log10 of the molar value. The source made the active and inactive calls. No cut-off for these calls is given here.
Legend:
[1] = molecular target: Cholinesterase (Equus caballus, UniProt P81908); test: Inhibition of equine serum BuChE using butyrylthiocholine iodide as substrate preincubated for 5 mins followed by substrate addition measured after 2 mins by Ellman's method; assay type: ADME
[2] = Antioxidant activity assessed as trolox equivalent of AAPH radical scavenging activity at 1 to 25 uM preincubated for 15 mins followed by AAPH addition measured every min for 80 mins by ORAC-FL assay; assay type: functional
[3] = molecular target: Acetylcholinesterase (Electrophorus electricus, UniProt O42275); test: Inhibition of Electric eel AChE using acetylthiocholine iodide as substrate preincubated for 5 mins followed by substrate addition measured after 2 mins by Ellman's method
[4] = Selectivity index, ratio of IC50 for equine serum BuChE to IC50 for Electric eel AChE
[5] = molecular target: T1, Amyloid-beta precursor protein (Homo sapiens, UniProt P05067); test: Inhibition of HFIP-pretreated amyloid beta (1 to 42) (unknown origin) self-induced aggregation at 25 uM after 48 hrs by thioflavin-T fluorescence assay relative to control
[6] = molecular target: T1, Amyloid-beta precursor protein; test: Inhibition of amyloid beta (1 to 42) (unknown origin) fibril formation at 25 uM after 48 hrs by uranyl acetate staining based transmission electron microscopic method
[7] = Cytotoxicity against human SH-SY5Y cells assessed as cell viability at 50 uM after 48 hrs by MTT assay relative to control; assay type: toxicity, cell-based; details: read-out: Activity
[8] = test system: SH-SY5Y; test: Neuroprotective activity against amyloid beta (1 to 42)-induced morphological changes in human SH-SY5Y cells assessed as decrease in fading synapses at 20 uM after 48 hrs by phase contrast microscopic method; assay type: functional, cell-based
[9] = Cytotoxicity against human SH-SY5Y cells assessed as cell viability at 5 uM after 48 hrs by MTT assay relative to control; assay type: toxicity, cell-based; details: read-out: Activity
[10] = test system: SH-SY5Y; test: Neuroprotective activity against H2O2-induced morphological changes in human SH-SY5Y cells assessed as decrease in cell rounding at 20 uM after 24 hrs by phase contrast microscopic method; assay type: functional, cell-based
[11] = test system: SH-SY5Y; test: Neuroprotective activity against amyloid beta (1 to 42)-induced neurodegeneration in human SH-SY5Y cells assessed as increase in cell viability at 20 uM after 48 hrs by MTT assay; assay type: functional, cell-based
[12] = Cytotoxicity against human SH-SY5Y cells assessed as cell viability at 25 uM after 48 hrs by MTT assay relative to control; assay type: toxicity, cell-based; details: read-out: Activity
[13] = Cytotoxicity against human SH-SY5Y cells assessed as cell viability at 100 uM after 48 hrs by MTT assay relative to control; assay type: toxicity, cell-based; details: read-out: Activity
[14] = test system: SH-SY5Y; test: Neuroprotective activity against H2O2-induced oxidative stress in human SH-SY5Y cells assessed as increase in cell viability at 10 uM after 24 hrs by MTT assay; assay type: functional, cell-based
[15] = Effect on basal ROS level in human SH-SY5Y cells at 5 to 20 uM after 24 hrs by DCFH-DA probe based fluorescence assay; assay type: ADME, cell-based
[16] = test system: SH-SY5Y; test: Neuroprotective activity against H2O2-induced oxidative stress in human SH-SY5Y cells assessed as inhibition of ROS accumulation after 24 hrs by DCFH-DA probe based fluorescence assay; assay type: functional, cell-based
[17] = Cytotoxicity against human SH-SY5Y cells assessed as cell viability at 75 uM after 48 hrs by MTT assay relative to control; assay type: toxicity, cell-based; details: read-out: Activity
[18] = molecular target: T1, Amyloid-beta precursor protein; test: Inhibition of HFIP-pretreated amyloid beta (1 to 42) (unknown origin) self-induced aggregation after 48 hrs by thioflavin-T fluorescence assay
[19] = Cytotoxicity against human SH-SY5Y cells assessed as cell viability at 1 uM after 48 hrs by MTT assay relative to control; assay type: toxicity, cell-based; details: read-out: Activity
[20] = test system: SH-SY5Y; test: Neuroprotective activity against amyloid beta (1 to 42)-induced morphological changes in human SH-SY5Y cells assessed as decrease in fragmented or rounded floating cells at 20 uM after 48 hrs by phase contrast microscopic method; assay type: functional, cell-based
[21] = test system: SH-SY5Y; test: Neuroprotective activity against amyloid beta (1 to 42)-induced morphological changes in human SH-SY5Y cells assessed as decrease in shrinked cell body at 20 uM after 48 hrs by phase contrast microscopic method; assay type: functional, cell-based
[22] = test system: SH-SY5Y; test: Neuroprotective activity against H2O2-induced morphological changes in human SH-SY5Y cells assessed as decrease in floated appearance at 20 uM after 24 hrs by phase contrast microscopic method; assay type: functional, cell-based
[23] = test system: SH-SY5Y; test: Neuroprotective activity against amyloid beta (1 to 42)-induced morphological changes in human SH-SY5Y cells assessed as decrease in loss of adherence at 20 uM after 48 hrs by phase contrast microscopic method; assay type: functional, cell-based
[24] = test system: SH-SY5Y; test: Neuroprotective activity against H2O2-induced morphological changes in human SH-SY5Y cells assessed as decrease in cell vacuolation at 20 uM after 24 hrs by phase contrast microscopic method; assay type: functional, cell-based
[25] = Cytotoxicity against human SH-SY5Y cells assessed as reduction in cell viability after 48 hrs by MTT assay; assay type: toxicity, cell-based
[26] = Cytotoxicity against human SH-SY5Y cells assessed as cell viability at 10 uM after 48 hrs by MTT assay relative to control; assay type: toxicity, cell-based; details: read-out: Activity
[27] = test system: SH-SY5Y; test: Neuroprotective activity against H2O2-induced oxidative stress in human SH-SY5Y cells assessed as inhibition of ROS accumulation at 10 to 20 uM after 24 hrs by DCFH-DA probe based fluorescence assay; assay type: functional, cell-based
[28] = test system: SH-SY5Y; test: Neuroprotective activity against amyloid beta (1 to 42)-induced neurodegeneration in human SH-SY5Y cells assessed as increase in cell viability at 10 uM after 48 hrs by MTT assay; assay type: functional, cell-based
[29] = test system: SH-SY5Y; test: Neuroprotective activity against H2O2-induced oxidative stress in human SH-SY5Y cells assessed as increase in cell viability at 20 uM after 24 hrs by MTT assay; assay type: functional, cell-based
[30] = molecular target: Acetylcholinesterase (Electrophorus electricus) (UniProt O42275); test: Mixed-type inhibition of Electric eel AChE at 10 to 40 nM using varying levels of acetylthiocholine iodide as substrate preincubated for 15 mins followed by substrate addition by Lineweaver-Burk plot analysis
[31] = test system: SH-SY5Y; test: Neuroprotective activity against H2O2-induced oxidative stress in human SH-SY5Y cells assessed as increase in cell viability at 5 to 20 uM after 24 hrs by MTT assay; assay type: functional, cell-based
[32] = molecular target: T1, Amyloid-beta precursor protein; test: Potency index, ratio of curcumin IC50 to compound IC50 for HFIP-pretreated amyloid beta (1 to 42) (unknown origin) self-induced aggregation
[33] = molecular target: T1, Amyloid-beta precursor protein; test: Potency index, ratio of compound effect to curcumin effect for inhibition of HFIP-pretreated amyloid beta (1 to 42) (unknown origin) self-induced aggregation at 25 uM

T1 sequence (P05067 whole entry): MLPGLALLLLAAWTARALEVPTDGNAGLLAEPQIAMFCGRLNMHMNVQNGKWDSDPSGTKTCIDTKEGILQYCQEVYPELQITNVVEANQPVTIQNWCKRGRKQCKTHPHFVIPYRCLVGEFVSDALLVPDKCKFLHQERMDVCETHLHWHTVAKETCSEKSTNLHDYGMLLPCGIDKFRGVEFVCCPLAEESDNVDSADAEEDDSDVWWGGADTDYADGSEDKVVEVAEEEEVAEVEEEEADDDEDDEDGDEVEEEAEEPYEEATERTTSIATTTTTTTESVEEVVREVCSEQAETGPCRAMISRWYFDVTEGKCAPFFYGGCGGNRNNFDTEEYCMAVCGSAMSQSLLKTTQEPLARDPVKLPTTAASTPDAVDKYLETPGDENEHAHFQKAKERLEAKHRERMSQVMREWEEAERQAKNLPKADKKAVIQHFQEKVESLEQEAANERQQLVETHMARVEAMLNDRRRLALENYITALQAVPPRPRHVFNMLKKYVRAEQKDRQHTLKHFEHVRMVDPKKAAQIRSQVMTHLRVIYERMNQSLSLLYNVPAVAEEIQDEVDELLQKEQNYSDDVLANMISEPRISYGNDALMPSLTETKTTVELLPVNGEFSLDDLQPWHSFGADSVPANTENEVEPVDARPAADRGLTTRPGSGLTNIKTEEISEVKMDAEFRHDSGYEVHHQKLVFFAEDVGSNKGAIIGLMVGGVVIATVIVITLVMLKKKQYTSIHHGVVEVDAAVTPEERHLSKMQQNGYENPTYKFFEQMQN
Cholinesterase, sequence (P81908 whole entry): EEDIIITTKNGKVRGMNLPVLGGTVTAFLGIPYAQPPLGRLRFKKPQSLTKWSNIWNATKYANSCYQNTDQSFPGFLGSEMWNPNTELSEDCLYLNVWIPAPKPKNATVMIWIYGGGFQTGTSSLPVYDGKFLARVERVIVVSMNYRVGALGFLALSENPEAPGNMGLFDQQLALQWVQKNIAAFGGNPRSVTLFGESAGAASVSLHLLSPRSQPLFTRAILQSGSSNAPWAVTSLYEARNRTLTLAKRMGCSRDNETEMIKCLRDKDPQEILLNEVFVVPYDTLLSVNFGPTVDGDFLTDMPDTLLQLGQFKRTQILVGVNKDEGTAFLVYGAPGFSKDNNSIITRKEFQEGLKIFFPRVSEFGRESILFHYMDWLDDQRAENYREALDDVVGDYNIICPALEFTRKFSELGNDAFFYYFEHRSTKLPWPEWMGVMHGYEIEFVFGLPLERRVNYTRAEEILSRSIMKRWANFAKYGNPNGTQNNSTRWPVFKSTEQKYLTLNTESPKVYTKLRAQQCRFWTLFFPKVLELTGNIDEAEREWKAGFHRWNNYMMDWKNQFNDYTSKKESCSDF
Acetylcholinesterase, sequence (O42275 whole entry): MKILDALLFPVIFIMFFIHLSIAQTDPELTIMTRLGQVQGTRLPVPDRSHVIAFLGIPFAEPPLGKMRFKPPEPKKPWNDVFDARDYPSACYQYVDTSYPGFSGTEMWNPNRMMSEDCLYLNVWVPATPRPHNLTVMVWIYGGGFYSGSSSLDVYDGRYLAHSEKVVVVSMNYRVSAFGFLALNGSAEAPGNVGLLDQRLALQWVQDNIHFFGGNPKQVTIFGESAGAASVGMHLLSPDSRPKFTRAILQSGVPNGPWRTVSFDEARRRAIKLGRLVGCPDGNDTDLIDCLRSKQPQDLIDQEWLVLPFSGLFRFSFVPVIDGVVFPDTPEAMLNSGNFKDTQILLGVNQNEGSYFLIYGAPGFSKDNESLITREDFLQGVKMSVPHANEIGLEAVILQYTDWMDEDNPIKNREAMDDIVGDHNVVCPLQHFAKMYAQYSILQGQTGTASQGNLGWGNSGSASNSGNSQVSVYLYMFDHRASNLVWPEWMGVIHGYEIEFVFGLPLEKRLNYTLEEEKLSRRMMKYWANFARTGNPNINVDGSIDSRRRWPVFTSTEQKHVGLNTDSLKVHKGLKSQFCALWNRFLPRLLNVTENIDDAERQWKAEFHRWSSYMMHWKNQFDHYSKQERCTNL
Acetylcholinesterase (Electrophorus electricus), sequence (O42275 24-633 limits assumed): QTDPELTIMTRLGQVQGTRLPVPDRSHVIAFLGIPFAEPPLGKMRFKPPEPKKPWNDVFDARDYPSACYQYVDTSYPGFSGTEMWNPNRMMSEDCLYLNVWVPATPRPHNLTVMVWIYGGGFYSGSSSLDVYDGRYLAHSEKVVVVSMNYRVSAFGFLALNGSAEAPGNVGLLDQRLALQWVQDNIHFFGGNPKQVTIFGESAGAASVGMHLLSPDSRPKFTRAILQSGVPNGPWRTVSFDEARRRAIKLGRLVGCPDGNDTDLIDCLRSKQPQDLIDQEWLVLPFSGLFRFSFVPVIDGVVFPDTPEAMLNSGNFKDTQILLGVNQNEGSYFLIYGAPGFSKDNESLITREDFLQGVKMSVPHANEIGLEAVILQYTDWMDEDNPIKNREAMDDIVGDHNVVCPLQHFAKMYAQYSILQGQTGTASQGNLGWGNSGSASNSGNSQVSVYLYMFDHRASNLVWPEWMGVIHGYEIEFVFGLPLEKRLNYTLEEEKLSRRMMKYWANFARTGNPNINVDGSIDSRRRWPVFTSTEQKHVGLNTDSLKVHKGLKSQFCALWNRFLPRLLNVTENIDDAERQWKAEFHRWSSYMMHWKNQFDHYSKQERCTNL

COc1cc2c(cc1OC)C(=O)/C(=C/c1ccc(N3CCN(c4ccccn4)CC3)cc1)C2
pIC50 [1]: 5.76
Activity (umolequiv/umol) [2]: 2.08
pIC50 [3]: 6.98
Ratio IC50 [4]: 16.5
inhibition [5]: 73.3%

COc1cc(/C=C/C(=O)CC(=O)/C=C/c2ccc(O)c(OC)c2)ccc1O
inhibition [6]: Active

COc1cc2c(cc1OC)C(=O)/C(=C/c1ccc(N3CCN(C(=O)c4ccccc4)CC3)cc1)C2
pIC50 [1]: 6.44
Activity (umolequiv/umol) [2]: 2.31
pIC50 [3]: 5.77
Ratio IC50 [4]: 0.2
inhibition [5]: 61.4%

COc1cc2c(cc1OC)C(=O)/C(=C/c1ccc(N3CCN(C(=O)c4ccoc4)CC3)cc1)C2
viability at 48 h, 50 µM [7]: 86.9%
Activity [8]: Active
viability at 48 h, 5 µM [9]: 94.4%
pIC50 [1]: 5.71
Activity [10]: Active
Activity [11]: Active
viability at 48 h, 25 µM [12]: 90.1%
viability at 48 h, 100 µM [13]: 81.1%
Activity [14]: Active
Activity (umolequiv/umol) [2]: 3.89
Activity [15]: Non-Toxic
inhibition [16]: Dose-dependent effect
viability at 48 h, 75 µM [17]: 83.7%
pIC50 [3]: 7.47
pIC50 [18]: 4.96
viability at 48 h, 1 µM [19]: 96%
Activity [20]: Active
Activity [21]: Active
Activity [22]: Active
Activity [23]: Active
Activity [24]: Active
Activity [25]: Dose-dependent effect
inhibition [5]: 80.4%
viability at 48 h, 10 µM [26]: 92.3%

COc1cc2c(cc1OC)C(=O)/C(=C/c1ccc(N3CCN(c4ncccn4)CC3)cc1)C2
viability at 48 h, 50 µM [7]: 89.3%
Activity [8]: Active
viability at 48 h, 5 µM [9]: 96.1%
pIC50 [1]: 5.61
Activity [10]: Active
viability at 48 h, 25 µM [12]: 92.8%
viability at 48 h, 100 µM [13]: 82.4%
inhibition [27]: Active
Activity (umolequiv/umol) [2]: 2.34
Activity [28]: Active
inhibition [6]: Active
viability at 48 h, 75 µM [17]: 85.7%
pIC50 [3]: 7.60
pIC50 [18]: 5.00
viability at 48 h, 1 µM [19]: 98.5%
Activity [20]: Active
Activity [29]: Active
Ratio IC50 [4]: 97.3
inhibition [30]: Active
Activity [21]: Active
Activity [22]: Active
Activity [23]: Active
Activity [24]: Active
Activity [25]: Dose-dependent effect
inhibition [5]: 81.6%
viability at 48 h, 10 µM [26]: 94.7%

COc1cc2c(cc1OC)C(=O)/C(=C/c1ccc(N3CCN(c4ccc(C(F)(F)F)cc4)CC3)cc1)C2
pIC50 [1]: 6.67
Activity (umolequiv/umol) [2]: 1.72
pIC50 [3]: 6.82
Ratio IC50 [4]: 1.4
inhibition [5]: 64.2%

COc1cc2c(cc1OC)C(=O)/C(=C/c1ccc(N3CCN(Cc4ccc5c(c4)OCO5)CC3)cc1)C2
pIC50 [1]: 4.91
Activity (umolequiv/umol) [2]: 3.35
pIC50 [3]: 5.73
Ratio IC50 [4]: 6.5
inhibition [5]: 64.5%

COc1cc2c(cc1OC)C(=O)/C(=C/c1ccc(N3CCN(C(c4ccc(F)cc4)c4ccc(F)cc4)CC3)cc1)C2
viability at 48 h, 50 µM [7]: 88.6%
Activity [8]: Active
viability at 48 h, 5 µM [9]: 95.4%
pIC50 [1]: 5.52
Activity [10]: Active
Activity [11]: Active
viability at 48 h, 25 µM [12]: 92.8%
viability at 48 h, 100 µM [13]: 80.3%
inhibition [27]: Active
Activity [31]: Active
Activity (umolequiv/umol) [2]: 2.98
inhibition [6]: Active
viability at 48 h, 75 µM [17]: 84.3%
pIC50 [3]: 7.35
pIC50 [18]: 5.13
viability at 48 h, 1 µM [19]: 97.1%
Activity [20]: Active
Ratio IC50 [4]: 67
Ratio IC50 [32]: 2.96
Activity [21]: Active
Activity [22]: Active
Activity [23]: Active
Activity [24]: Active
Activity [25]: Dose-dependent effect
inhibition [5]: 83.7%
viability at 48 h, 10 µM [26]: 95.7%

COc1cc2c(cc1OC)C(=O)/C(=C/c1ccc(N3CCN(c4ccccc4)CC3)cc1)C2
pIC50 [1]: 5.22
Activity (umolequiv/umol) [2]: 0.64
pIC50 [3]: 5.88
Ratio IC50 [4]: 4.5
inhibition [5]: 51.1%

COc1cc2c(cc1OC)C(=O)/C(=C/c1ccc(N3CCN(Cc4ccccc4)CC3)cc1)C2
pIC50 [1]: 7.06
Activity (umolequiv/umol) [2]: 1.69
pIC50 [3]: 5.58
Ratio IC50 [4]: 0.03
inhibition [5]: 48.5%

COc1cc2c(cc1OC)C(=O)/C(=C/c1ccc(N3CCN(c4ccc(Cl)cc4)CC3)cc1)C2
pIC50 [1]: 5.65
Activity (umolequiv/umol) [2]: 1.87
pIC50 [3]: 6.54
Ratio IC50 [4]: 7.6
inhibition [5]: 59.5%

COc1cc2c(cc1OC)C(=O)/C(=C/c1ccc(N3CCN(c4ccc(C)cc4C)CC3)cc1)C2
pIC50 [1]: 5.29
Activity (umolequiv/umol) [2]: 1.35
pIC50 [3]: 6.95
Ratio IC50 [4]: 45.8
inhibition [5]: 65.7%

COc1cc2c(cc1OC)C(=O)/C(=C/c1ccc(N3CCN(C(c4ccccc4)c4ccccc4)CC3)cc1)C2
pIC50 [1]: 5.31
Activity (umolequiv/umol) [2]: 1.41
pIC50 [3]: 7.09
pIC50 [18]: 4.91
Ratio IC50 [4]: 59.6
inhibition [5]: 78.2%

COc1cc2c(cc1OC)C(=O)/C(=C/c1ccc(N3CCN(c4ccc(C)cc4)CC3)cc1)C2
pIC50 [1]: 5.73
Activity (umolequiv/umol) [2]: 1.3
pIC50 [3]: 6.71
Ratio IC50 [4]: 9.5
inhibition [5]: 63.5%

COc1ccc(N2CCN(c3ccc(/C=C4\Cc5cc(OC)c(OC)cc5C4=O)cc3)CC2)cc1
pIC50 [1]: 6.22
Activity (umolequiv/umol) [2]: 3.39
pIC50 [3]: 6.92
Ratio IC50 [4]: 5.06
inhibition [5]: 70.5%
Ratio [33]: 1.26

COc1cc2c(cc1OC)C(=O)/C(=C/c1ccc(N3CCN(c4ccc(F)cc4)CC3)cc1)C2
pIC50 [1]: 5.49
Activity (umolequiv/umol) [2]: 1.93
pIC50 [3]: 6.28
Ratio IC50 [4]: 6.1
inhibition [5]: 66.8%

Reference: ChEMBL document CHEMBL3877279, “Design, synthesis, in-silico and biological evaluation of novel donepezil derivatives as multi-target-directed ligands for the treatment of Alzheimer's disease” (Eur J Med Chem, 2017)
